Assays:
healthy participants = conditions: propofol during placebo infusion
clinical = conditions: for AUC(0-t): both, human, plasma, intravenous, propofol Mean AUClast
Method: A study is conducted for Compound A. The study is a 3-period, randomized, placebo-controlled, double-blind, crossover study in healthy subjects. The primary objective of the study was to determine the safety and tolerability of Compound A in healthy participants after low and high doses of Compound A under hypoxic and hypercapnic conditions in conjunction with low and high doses of propofol. Another primary objective of the study was to determine the ventilatory response of low and high doses of Compound A under hypoxic and hypercapnic conditions in conjunction with low and high doses of propofol. A secondary objective of the study was to determine the cardiovascular response of low and high doses of Compound A during hypoxic and hypercapnic conditions in conjunction with low and high doses of propofol. Another secondary objective of the study was to evaluate the ventilatory response after administration of Compound A and propofol, under different ventilatory conditions: hypoxia and hyperoxic exposure at normocapnia followed by the same sequence at hypercapnia. The study was conducted in conformance with Good Clinical Practice. The study was a randomized, double-blinded, placebo-controlled, three-way crossover study to assess the safety, tolerability, respiratory PD, and PK of Compound A in healthy male and female participants. Subjects were initially screened up to 6 weeks prior to randomization. Following successful initial medical screening, they were scheduled for the study and receive a randomization number. Subjects underwent 3 separate treatment periods. In each of these periods, low or high doses of Compound A or placebo were continuously perfused throughout for a period of 270 minutes. During each period, subjects received different intravenous propofol dosages or placebo in set order: placebo—propofol low dose—propofol high dose. Each treatment session of propofol or placebo is […]. During each propofol treatment session, different ventilatory conditions are applied, hypoxia and hypercapnia (FIG. 1). […] Each assessment period (i.e., “run”) consists of a hypoxia/hyperoxic exposure at normocapnia followed by one the same sequence at hypercapnia. […] The participants received the following treatments in random order during the dosing periods: • Placebo+placebo/propofol low/propofol high/ • Compound A low+placebo/propofol low/propofol high • Compound A high+placebo/propofol low/propofol high Subjects were admitted to study site on Day −1 for pre-dose activities and eligibility was reassessed and stayed overnight. On each dosing day (Day 1), subjects were transferred to a special unit at study site in the morning (or early afternoon) after a minimum 8 hour overnight fasting. After placement of the respiratory and cardiovascular monitoring/assessment devices including an arterial line, subjects assumed the semi-recumbent position and sufficient time was allowed for subjects to resume a normal breathing pattern. After completion of baseline evaluations, all measurements were performed as per the schedule of assessments. Upon completion of all measurements on the dosing day, subjects were monitored overnight and assessed the next morning (at least 12 hours post study treatments) prior to discharge (Day 2). Subjects were not immediately discharged in cases where prolonged care is required (e.g., due to adverse event, residual sedation etc.) and were treated as necessary. Duration of Treatment: Participation was approximately 10 weeks divided as follows: • Screening: Up to 42 days before first dosing • Treatment phase of approximately 21 days, including three treatment and study assessment periods of 3 days each with approximately 7 days (minimum of 3) between dosing days • Follow up 7 days after last dosing Healthy adult subjects were selected for the study.

[1] = during infusion with Compound A high dose
[2] = during infusion with Compound A low dose

## CC(C)c1cccc(C(C)C)c1O [propofol]
Healthy participants
  Effect of propofol on hypoxic sensitivity: decreased hypoxic sensitivity
clinical; [1]
  AUC(0-t): 6150 ± 1170 ng·h/mL
  propofol peak plasma concentration, mean (±SD): 2620.0 ± 1093.86 ng/mL
clinical; [2]
  AUC(0-t): 5750 ± 1180 ng·h/mL
  propofol peak plasma concentration, mean (±SD): 2534.2 ± 1192.34 ng/mL
clinical; during infusion with placebo
  AUC(0-t): 4600 ± 548 ng·h/mL
  propofol peak plasma concentration, mean (±SD): 1880.8 ± 265.45 ng/mL
clinical; in vivo
  Propofol plasma concentrations during infusion with Compound A compared to placebo infusion: tended to be higher during infusion with Compound A
clinical; propofol high dose infusion, target 1200 ng/mL
  Propofol plasma concentrations versus targeted concentration: exceeding those targeted
clinical; propofol high dose interval, range across treatments
  propofol Geometric mean Cav200-270 min: 1525.12 to 1862.45 ng/mL
clinical; propofol low dose interval, range across treatments
  propofol Geometric mean Cav115-185 min: 452.62 to 559.80 ng/mL

Reference: patent US12138267B2, “Methods of treating respiratory depression modulated by a non-opioid agent” (Enalare Therapeutics Inc., priority 2021, dated 2024)
